Values quoted from earlier work in patent US20250213501A1, “IMPROVING SEMEN QUALITY” (CEUTICS HEALTH GMBH, priority 2022, published 2025).

Experiments:
[1] = daily intake of 12 mg of spermidine provided in a plant extract (e.g., wheat germ extract)

For `NCCCCNCCCN` [spermidine], the “NOAEL for a 70 kg person” value (70 kg person) is given as 470 mg/day, the “NOAEL (No Observed Adverse Effect Level)” value (Til et al., Food and Chemical Toxicology 1997) is given as 83 mg/kg body weight/day and the “safety of daily intake” value [1] is given as “safe”.
